Measurements: US11912755B2, “Endostatin fragments and variants for use in treating fibrosis” (iBio, Inc., priority 2015, dated 2024)

How the values were obtained:
[1] = tested on: TGF-β-induced dermal fibrosis in mouse skin; settings: single dose concurrently with TGF-β; cited from earlier work
human skin explants = experiment: Ex vivo human skin assay, dermal thickness; format: cell-based
Procedure: Ex vivo human skin assays. Human abdominal skin was obtained from corrective plastic surgery. As previously described (Yasuoka et al., The Open Rheumatol J 2008; 2:17-22), subcutaneous fat tissue was removed uniformly and skin tissue was cut into 1.5 cm×1.5 cm sections. The following were injected intradermally in a total volume of 100 μl 1×PBS: rE alone (1-10 μg/ml), endostatin peptides alone (10 μg/ml), rE or endostatin peptides (1-20 μg/ml) in combination with TGF-β (10 ng/ml), and TGF-β alone (10 ng/ml). In some experiments, human skin was first injected with TGF-β for 48 h followed by recombinant endostatin (rE) administration in the same injection site as TGF-β. Explants containing complete epidermal and dermal layers were cultured in an air liquid interface with the epidermal and keratin layers side up and exposed to air. The culture medium was replaced every other day. After 1 or 2 weeks, skin tissue corresponding to an area with 8-mm diameter centered around the injection site was harvested using disposable 8-mm ACUPUNCH® (Acuderm, Inc., Lauderdale, FL). Skin tissue was fixed in 10% formalin prior to embedding in paraffin.
(§1) Measurement of Skin Dermal Thickness. Six μm sections of paraffin-embedded human and mouse skin tissues were stained with hematoxylin and eosin (H&E). In some experiments, sections were stained with Masson trichrome which identifies collagens. Images were taken on a Nikon Eclipse 800 microscope. The thickness of the dermis was measured in 6 random fields of each section using the image/J® software. Data are shown in arbitrary units.

[2] = tested on: TGF-β-induced dermal fibrosis in mouse skin; experiment: In vivo TGF-β-induced dermal fibrosis in mouse skin; settings: 10 μg/ml intradermal with TGF-β 10 ng/ml; one week
Procedure: In Vivo Mouse Experiments. CB57BL6/J male mice were purchased from The Jackson Laboratory (Bar Harbor, ME). Human rE (10 μg/ml) or Endostatin peptides (10 μg/ml) in combination with TGF-β (10 ng/ml), or TGF-β alone were injected intradermally on the back of mice in a total volume of 100 μl 1×PBS. Mice were injected in two different skin sites and sacrificed one week post-injection. Skin surrounding the injection site was harvested and fixed in 10% formalin prior to embedding in paraffin.
as §1
E4, a peptide representing the carboxy terminus of human endostatin, can attenuate fibrosis triggered by multiple fibrogenic factors. The anti-fibrotic effects of E4 can be detected whether administered concomitantly with or following the fibrogenic trigger. The efficacy of E4 was confirmed in […] pre-clinical models of fibrosis: a) bleomycin-induced dermal fibrosis in vivo in mouse skin, b) TGF-β induced dermal fibrosis in mouse skin, and c) bleomycin-induced pulmonary fibrosis. E4 peptide or a control peptide (E1; representing the amino terminal region of endostatin) were administered at the same time as TGF-β or bleomycin or 3-4 days following TGF-β or bleomycin. Mice were sacrificed one and two weeks after TGF-β-initiation of dermal fibrosis, and two and three weeks after bleomycin-induced pulmonary fibrosis. Two different modes of administration of the E4 peptide were also tested. It was confirmed that intraperitoneal and intratracheal administration was effective. The amount of E4 that was administered was 10 μg/ml in a total volume of 100 μl for skin and IP injections and 50 μl for IT administration.
For these studies, fibrosis was assessed by measurement of dermal thickness on H&E skin sections (skin), assessment of collagen levels by Masson Trichrome staining (skin and lung), and measurement of collagen levels by Sircol assay (lung). Furthermore, to confirm the mechanism by which E4 exerts its anti-fibrotic effects, the production of extra-cellular matrix (ECM) components, the levels of enzymes that promote matrix stabilization and thus accumulation and levels of those that degrade ECM components, and levels of transcription factors downstream of the pro-fibrotic triggers were evaluated. Results were assessed using the unpaired t test and the 3-way ANOVA (for the ID1 data).

[3] = tested on: human primary lung fibroblasts; settings: adenovirally-expressed endostatin; fibroblasts pretreated with TGF-β; cited from earlier work
IPF model = settings: rat, in vivo; cited from earlier work
[4] = tested on: diabetes/renal fibrosis model; settings: rat, in vivo; cited from earlier work
rabbit ear scar model = settings: in vivo; cited from earlier work
liver fibrosis model = settings: mouse, in vivo; cited from earlier work
[5] = tested on: patients with advanced solid tumors; settings: daily 1-hour intravenous infusion at doses up to 300 mg/m2; cited from earlier work

In the case of “E3: synthetic peptide, SEQ ID NO: 20, amino acids 133-180 of human endostatin (SYCETWRTEAPSATGQASSLLGGRLLGQSAASCHHAYIVLCIENSFMT; E3 amino acid sequence)”, the skin thickness [1] is listed as “significantly decreased skin”, the “dermal thickness, baseline effect” value (human skin explants; injected alone, no TGF-β, rE 1, 5, 10 μg/ml, peptides 10 μg/ml) is listed as “tendency towards reduction” and the “development of fibrosis as measured by dermal thickness” value (human skin explants; peptides 10 μg/ml with 10 ng/ml TGF-β, vs TGF-β alone) is listed as “significantly abolished”. For the same substance, the “TGF-β-induced dermal fibrosis (dermal thickness)” value [2] was “prevented”.
In the case of Endostatin, the “FN and Col1α1 protein levels” value [3] is given as “endostatin markedly reduced”, the injury parameters (IPF model) is given as “reversed injury parameters” and the injury parameters [4] is given as “reversed injury parameters”. For the same substance, the injury parameters (rabbit ear scar model) was “reversed injury parameters”, the injury parameters (liver fibrosis model) was “reversed injury parameters” and the tolerability [5] was “well tolerated”.
